Source: paper PMC12562640, “Investigating Amphoteric 3,4′-Biscoumarin-Based ortho-[(Dialkylamino)methyl]phenols as Dual MAO and ChE Inhibitors” (International Journal of Molecular Sciences, 2025)
Values after ≈ are worked out from the molar mass of the structure shown. Values joined by “and” are separate entries in the source; they are usually repeats but may differ in a detail not shown here. Identical values can stand only once. “Also recorded” adds a separate entry of the source. Like-named read-outs stand apart in the source and are kept apart here.

Experiments:
human MAO-A [1] = target: T1, human MAO-A (Homo sapiens, UniProt P21397); experiment: Inhibition kinetics and time course of MAO-A inhibition; type: biochemical
T1 construct: purchased Sigma Aldrich; host or cells: insect cells infected with baculovirus (microsomes)
T1 sequence (P21397 1-527): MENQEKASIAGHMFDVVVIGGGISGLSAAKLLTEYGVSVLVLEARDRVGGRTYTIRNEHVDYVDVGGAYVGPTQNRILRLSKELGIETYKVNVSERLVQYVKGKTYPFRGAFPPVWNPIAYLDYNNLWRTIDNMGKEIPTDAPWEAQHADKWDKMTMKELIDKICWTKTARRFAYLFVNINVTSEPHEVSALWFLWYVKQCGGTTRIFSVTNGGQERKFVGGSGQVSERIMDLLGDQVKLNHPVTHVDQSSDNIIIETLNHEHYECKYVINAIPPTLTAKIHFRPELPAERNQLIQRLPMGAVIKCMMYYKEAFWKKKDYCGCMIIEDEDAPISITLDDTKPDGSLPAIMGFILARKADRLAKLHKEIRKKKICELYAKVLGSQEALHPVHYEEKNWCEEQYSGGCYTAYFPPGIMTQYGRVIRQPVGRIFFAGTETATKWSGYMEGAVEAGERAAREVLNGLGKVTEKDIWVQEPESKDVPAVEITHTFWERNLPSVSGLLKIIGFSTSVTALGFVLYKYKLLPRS
From the text: For the sake of clarity, the position of the Mannich base (-CH2NR2) on the main coumarin core will be indicated as C8, whereas the positions of Cl or Br and OMe on the 4-coumarin-3-yl moiety will be indicated as C6′ and C8′.
Time courses of MAO-A inhibition by 2b and 5b, using a spectrophotometric assay measuring the absorbance of 4-
(1 picture or pasted object on this page, not shown here)

[2] = Lipophilicity by RP-HPLC (log k'w); type: physicochemical; conditions: C18, extrapolated to 100% water mobile phase
Experimental: The lipophilicity of the five compounds in Table 4 was assessed by calculation and experimental approaches. As a calculated lipophilicity parameter (log Pcalc), we took from the SwissADME free website (http://www.swissadme.ch) the ‘Consensus Log Po/w’, that is, the arithmetic mean of octanol/water log Ps calculated by five methods (iLOGP, XLOGP3, WLOGP, MLOGP, and SILICOS-IT).
The lipophilicity parameters were determined by an RP-HPLC technique. In short, methanolic solutions of the examined compounds (1 mg·mL^−1) were analyzed by the Agilent 1260 infinite HPLC system (Agilent Technologies, Milan, Italy) equipped with a diode array detector (DAD), using a Phenomenex C18-column (Kinetex 5 μ, 100 Å, 150 × 3 mm) as the stationary phase and MeOH/water buffer mobile phases with different v/v composition (i.e., mobile phases containing 0.05 increments of MeOH volume fractions in 10 mM ammonium formate buffer at pH 4.5; φMeOH ranging between 0.70 and 0.20). The chromatographic measurements were carried out at 25 ± 1 °C, flow rate of 0.5 mL·min^−1, and detection at λ 330 nm. The log of capacity factors of each compound at different mobile phase compositions was calculated (log k′ = log (tR − t0)/t0, where tR represents the retention time of the solute and t0 is the column dead time). For each compound, the equation of the linear relationship between log k′ and φMeOH (R^2 > 0.991) on at least five datapoints, each from duplicate, was derived by regression analysis and the intercept at the y-axis (i.e., φMeOH = 0) calculated as the lipophilicity parameter log k′w.

[3] = Kinetic solubility in aqueous buffers (RP-HPLC); type: physicochemical; conditions: for solubility at 2 h: PBS buffer, 25 °C, pH 7.4, aqueous buffer, kinetic from dmso stock, read-out: Solubility Exp.; for experimental solubility in PBS pH 7.4, times higher than calculated with the ESOL model: PBS pH 7.4 vs ESOL
Experimental: Water solubility and lipophilicity parameters were measured following previously reported methods. […] The mixture was then separated by centrifugation at 2500 rpm for 3 min. Immediately after filtration, 100 µL of the filtrate was mixed with an equal volume of a 1:1 (v/v) DMSO and PBS (50 mM, pH 7.4, KCl 0.15 M) or HCl (0.01 M, pH 2, KCl 0.15 M) solution to prevent precipitation from the saturated solution and subsequently analyzed by HPLC. The peak area was compared to a calibration curve of the tested compound in MeOH. The analytical parameters were set as follows. Mobile phase: MeOH/water pH 2.8 (acetic acid 0.5% v/v) at different percentages depending on the retention time of each test compound; stationary phase: Phenomenex, Kinetex 5 µ, C8, (150 × 3 mm); flux: […]; injection: 2 µL; λ 330 nm. The analyses were performed on the Agilent HPLC 1260 Infinity Series Integrated System (Agilent Technologies, Milan, Italy).

human MAO-A [4] = target: T1, human MAO-A; experiment: biochemical; type: biochemical
Experimental: (§1) The inhibition assays of human monoamine oxidases were conducted using a fluorescence-based method with kynuramine as a non-selective substrate for each isoform, MAO-A/B [44, 45, 46]. Recombinant human MAO-A and MAO-B (microsomes from insect cells infected with baculovirus; Sigma Aldrich, St. Louis, MO, USA) (Merk Life Science S.r.l., Milan, Italy) were used. The measurements were performed in triplicate in black round-bottom polystyrene 96-well plates (Greiner Bio-One, Kremsmünster, Austria). […] In the MAO inhibition assays, all compounds were initially screened at a concentration of 10 µM. Each of them was preincubated at 37 °C for 20 min with 50 µM kynuramine in a phosphate buffer (PBS, 0.1 M, pH 8.0), adjusted to 0.39 osmolarity with KCl. After adding recombinant human MAO-A/B (250 U/mg and 59 U/mg, respectively) and incubating for another 30 min, NaOH was added. The fluorescence was measured at excitation/emission wavelengths of 310/400 nm. […] The IC50 is reported as the mean ± SD of three independent experiments, each performed in duplicate.

human huMAO-B = target: T2, human huMAO-B (Homo sapiens, UniProt P27338); experiment: biochemical; type: biochemical
T2 construct: purchased Sigma Aldrich; host or cells: insect cells infected with baculovirus (microsomes)
T2 sequence (P27338 1-520): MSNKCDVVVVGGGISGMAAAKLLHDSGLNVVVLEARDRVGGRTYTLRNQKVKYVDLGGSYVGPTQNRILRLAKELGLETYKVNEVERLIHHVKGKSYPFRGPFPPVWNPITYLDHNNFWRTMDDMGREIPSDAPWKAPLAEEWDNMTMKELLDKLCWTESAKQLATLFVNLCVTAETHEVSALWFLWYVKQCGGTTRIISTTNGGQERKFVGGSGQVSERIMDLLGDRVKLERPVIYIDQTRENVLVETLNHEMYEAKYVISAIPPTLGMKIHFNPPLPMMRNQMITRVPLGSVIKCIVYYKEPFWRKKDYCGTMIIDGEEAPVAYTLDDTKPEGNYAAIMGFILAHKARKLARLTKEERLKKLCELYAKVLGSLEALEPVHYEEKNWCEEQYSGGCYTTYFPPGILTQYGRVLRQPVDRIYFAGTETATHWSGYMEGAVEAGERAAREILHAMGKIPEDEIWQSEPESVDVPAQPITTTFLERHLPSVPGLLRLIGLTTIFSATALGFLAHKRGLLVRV
Experimental: as §1

human huAChE = human huAChE (Homo sapiens, UniProt P22303); experiment: biochemical; type: biochemical; conditions: for inhibition at 10 µM: at 10 µM concentration, read-out: huAChE inhibition class
Sequence of human huAChE (P22303 32-614): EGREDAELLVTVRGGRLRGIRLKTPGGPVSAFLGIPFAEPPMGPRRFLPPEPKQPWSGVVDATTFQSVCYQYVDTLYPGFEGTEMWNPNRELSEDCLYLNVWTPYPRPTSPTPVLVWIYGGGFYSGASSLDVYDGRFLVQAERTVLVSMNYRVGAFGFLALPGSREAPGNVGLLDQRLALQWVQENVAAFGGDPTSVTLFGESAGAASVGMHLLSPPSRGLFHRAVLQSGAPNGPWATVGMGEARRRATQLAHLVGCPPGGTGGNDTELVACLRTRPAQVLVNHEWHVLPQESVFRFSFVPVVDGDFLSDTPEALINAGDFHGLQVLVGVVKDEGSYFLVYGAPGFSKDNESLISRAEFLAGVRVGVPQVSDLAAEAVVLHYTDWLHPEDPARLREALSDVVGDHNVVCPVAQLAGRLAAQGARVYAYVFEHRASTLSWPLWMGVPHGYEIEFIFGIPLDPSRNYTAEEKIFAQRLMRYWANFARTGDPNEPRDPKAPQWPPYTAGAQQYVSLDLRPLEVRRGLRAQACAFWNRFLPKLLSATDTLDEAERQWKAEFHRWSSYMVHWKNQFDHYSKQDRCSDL
Experimental: The inhibition of human huAChE was also evaluated for five compounds.
(§2) Cholinesterase inhibition assays were carried out using the Ellman spectrophotometric method, modified for a 96-well plate format. Acetylcholinesterase from electric eel and butyrylcholinesterase from equine serum (Sigma Aldrich) were employed. The measurements were performed in triplicate using clear, flat-bottom polystyrene plates (Greiner Bio-One).

horse serum eqBChE = target: T3, horse serum eqBChE (Equus caballus, UniProt P81908); experiment: biochemical; type: biochemical; conditions: at 10 µM concentration
T3 construct: Acetylcholinesterase from electric eel and butyrylcholinesterase from equine serum (Sigma Aldrich) were employed; purchased Sigma Aldrich; host or cells: equine serum
T3 sequence (P81908 whole entry): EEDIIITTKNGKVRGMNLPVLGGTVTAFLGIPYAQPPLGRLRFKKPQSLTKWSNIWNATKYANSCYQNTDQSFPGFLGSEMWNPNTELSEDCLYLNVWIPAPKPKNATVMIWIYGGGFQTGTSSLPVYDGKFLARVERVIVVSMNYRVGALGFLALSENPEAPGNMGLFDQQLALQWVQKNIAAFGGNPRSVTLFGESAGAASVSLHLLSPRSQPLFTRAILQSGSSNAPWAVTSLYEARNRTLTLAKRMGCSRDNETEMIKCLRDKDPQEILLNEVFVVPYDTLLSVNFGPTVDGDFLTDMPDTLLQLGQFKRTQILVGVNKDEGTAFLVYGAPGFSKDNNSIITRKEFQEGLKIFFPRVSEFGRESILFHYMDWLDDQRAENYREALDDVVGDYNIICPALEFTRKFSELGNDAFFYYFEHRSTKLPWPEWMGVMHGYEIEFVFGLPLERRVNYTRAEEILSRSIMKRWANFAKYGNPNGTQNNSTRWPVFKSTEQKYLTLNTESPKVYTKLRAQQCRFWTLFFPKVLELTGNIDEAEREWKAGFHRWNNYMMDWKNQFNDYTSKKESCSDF
Experimental: as §2

electric eel eeAChE = target: T4, electric eel eeAChE (Electrophorus electricus, UniProt O42275); experiment: biochemical; conditions: for IC50: mean ± SD of three independent determinations, ~10 means 50–60% inhibition at 10 µM
T4 construct: Acetylcholinesterase from electric eel and butyrylcholinesterase from equine serum (Sigma Aldrich) were employed; purchased Sigma Aldrich; host or cells: electric eel (natural source)
T4 sequence (O42275 24-633): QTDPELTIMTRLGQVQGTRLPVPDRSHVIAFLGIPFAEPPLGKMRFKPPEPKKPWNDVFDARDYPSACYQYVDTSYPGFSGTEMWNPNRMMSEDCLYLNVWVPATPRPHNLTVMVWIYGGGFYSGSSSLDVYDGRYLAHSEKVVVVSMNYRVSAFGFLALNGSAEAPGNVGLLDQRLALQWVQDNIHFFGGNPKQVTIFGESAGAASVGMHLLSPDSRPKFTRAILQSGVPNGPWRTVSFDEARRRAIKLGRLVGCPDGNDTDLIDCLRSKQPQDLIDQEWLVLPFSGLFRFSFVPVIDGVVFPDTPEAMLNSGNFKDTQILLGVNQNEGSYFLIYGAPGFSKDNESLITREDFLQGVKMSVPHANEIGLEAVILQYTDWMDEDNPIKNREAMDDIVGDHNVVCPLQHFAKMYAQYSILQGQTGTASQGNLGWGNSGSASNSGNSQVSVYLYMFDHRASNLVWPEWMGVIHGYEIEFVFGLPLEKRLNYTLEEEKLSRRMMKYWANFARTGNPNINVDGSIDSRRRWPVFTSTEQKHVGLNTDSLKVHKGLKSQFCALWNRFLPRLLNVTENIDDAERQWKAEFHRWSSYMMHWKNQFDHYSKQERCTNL

[5] = Hydrolytic stability in aqueous buffers; conditions: 0.01 M HCl (pH 2.0) and 0.05 M PBS (pH 7.4), 37 ± 1 °C, 1 h, 100 μM
Experimental: Sample solutions at 100 μM (DMSO as the cosolvent, 1% v/v) were incubated at 37 ± 1 °C for 1 h, following shaking of the solution on an orbital shaker at 250 rpm and monitoring by RP-HPLC.

[6] = PBS (50 mM, pH 7.4, 0.15 M KCl) at 25 ± 1 °C, n = 3
[7] = read-out: eqBChE inhibition class
[8] = mean ± SD of three independent determinations, ~10 means 50–60% inhibition at 10 µM
[9] = at 10 µM concentration, mean ± SD

Row | Compound | Log k’w (polycratic capacity factor) [2] | solubility at 2 h [3, 6] | IC50 (human MAO-A [4]) | IC50 (human huMAO-B) | inhibition at 10 µM (human huAChE) | inhibition at 10 µM (horse serum eqBChE; [7]) | IC50 (electric eel eeAChE) | experimental solubility in PBS pH 7.4, times higher than calculated with the ESOL model [3] | huMAO-A IC50 (human MAO-A [4]; [8]) | hydrolytic stability [5] | further results
1 | CN(C)Cc1c(O)ccc2c(-c3cc4cc(Cl)ccc4oc3=O)cc(=O)oc12 [Compound 2b, 8-((dimethylamino)methyl)-4-(6-chloro-2-oxo-2H-chromen-3-yl)-7-hydroxy-2H-chromen-2-one] | 2.45 | 147 µM (≈ 58.5 µg/mL) | 1.49 ± 0.49 µM | ~10 µM | < 10% | < 10% | ~10 µM | – | – | – | mode of inhibition of MAO-A (human MAO-A [1]; Michaelis–Menten and Lineweaver–Burk plots): competitive; Ki (human MAO-A [1]; human MAO-A, competitive inhibition, read-out: inhibition constant (Ki) MAO-A): 0.272 µM; reversibility of MAO-A inhibition (human MAO-A [1]; time course, absorbance of 4-hydroxyquinoline at 316 nm, inhibitor close to IC50): reversible
2 | CN(C)Cc1c(O)ccc2c(-c3cc4cc(Br)ccc4oc3=O)cc(=O)oc12 [Compound 2c, 8-((dimethylamino)methyl)-4-(6-bromo-2-oxo-2H-chromen-3-yl)-7-hydroxy-2H-chromen-2-one] | 2.65 | 141 µM (≈ 62.4 µg/mL) | 2.23 ± 0.22 µM | ~10 µM | < 10% | < 10% | – | thirteen | single-digit micromolar | stable over 1 h | inhibition at 10 µM (electric eel eeAChE; [9]): 20%
3 | CCN(CC)Cc1c(O)ccc2c(-c3cc4cc(Br)ccc4oc3=O)cc(=O)oc12 [Compound 3c, 8-((diethylamino)methyl)-4-(6-bromo-2-oxo-2H-chromen-3-yl)-7-hydroxy-2H-chromen-2-one] | 2.89 | – | 3.04 ± 1.37 µM | – | – | – | < 10 µM and 1.56 µM | fifty; also recorded: fiftyfold | single-digit micromolar | – | Solubility Exp. [3, 6]: 181 µM (≈ 85.1 µg/mL); water solubility relative to 2c ([3]; at pH 7.4): 1.3 fold; inhibition at 10 µM (human huMAO-B; [9]): 42%; IC50 (human huAChE): 4.27 ± 0.58 µM; inhibition at 10 µM (horse serum eqBChE; mean ± SD, read-out: eqBChE % inhibition): 37%
4 | CCCCN(C)Cc1c(O)ccc2c(-c3cc4cc(Br)ccc4oc3=O)cc(=O)oc12 [Compound 5c] | – | – | – | – | – | – | – | – | single-digit micromolar | stable over 1 h | IC50 (human MAO-A [4]; [8]): 2.52 ± 0.7 µM; IC50 (human huMAO-B; [8]): ~10 µM; eqBChE % inhibition (horse serum eqBChE; mean ± SD): [25 ± 11] %
